The values below come from patent publication US20040265915A1, “Method to identify regulators of cellular activation using Bcl10” (priority 2003, published 2004).

Experiment [1] concerns Bcl10-YFP POLKADOTS formation. Briefly: Bcl10-YFP POLKADOTS formation in antigen-stimulated D10 T cells, fluorescence microscopy. Format: cell-based, murine. As to conditions: bisindo 2 μM, stauro 100 nM; for Bcl10-YFP POLKADOTS formation: D10 T cells expressing Bcl10-YFP, conalbumin-loaded CH12 B cells (100 μg/ml), 30 min pre-treatment, fixed after 20 min, FIG. 4; for Bcl10 POLKADOTS formation: D10 T cells expressing PKCθ-CFP and Bcl10-YFP, CH12 B cells with 250 μg/ml conalbumin, 30 min pretreatment, fixed after 30 min, FIG. 5. Here is the method: (§1) D10-IL2 (henceforth referred to as D10) is an IL-2 dependent subclone of the CD4^+ T cell clone D10 (16), maintained as described (17). Primary T cell blasts were prepared by stimulation of spleen and lymph node cells with 100 μg/ml plate-bound anti-TCRP for 48 hr, with IL-2 added for the final 24 hr of stimulation. CH12H-2^k B cells and CHb H-2^b B cells (18) were maintained as described previously (17).
(§2) Murine PKCθ was fused to a C-terminal linker (GRVELGR; SEQ ID NO:7) followed by GFP or CFP (19), modified by mutations that improve folding at 37° C. (20). Two I.M.A.G.E. expressed sequence tag (EST) clones encoding murine Bcl10 were purchased (2123397 and 3026026; ResGen). Clone 3026026 was used for PCR amplification of Bc 10, adding the C-terminal linker GR, which was then fused to the previously described modified YFP gene (17). The PKCθ-CFP and Bcl10-YFP gene fusions were cloned into the retroviral vectors pEneo and pEhyg (21), respectively. Retroviral infection and cell line production were as described (17).
Fluorescent and Nomarski images were acquired on an Olympus IX70 inverted microscope (Olympus America, Inc.) or a Zeiss Axiovert 200M inverted microscope (Carl Zeiss, Inc.) using a 100× plan-apochromat oil objective. The microscope was controlled by a TILLvisTRAC imaging system, driven by TILLvisION 4.0 software (TILL Photonics, GmbH). Excitation light was provided by a Polychrome IV monochromator (TILL Photonics, GmbH). Dichroic mirrors and excitation filters appropriate for each fluorophore were purchased from Chroma.
For fixed cell imaging, T cell conjugates were formed, mounted on coverslips, paraformaldehyde fixed, and stained with fluorophore-conjugated antibodies (Molecular Probes, Inc.) as described previously (16). For each fluorescent wavelength, z-stacks of 50 xy-planes separated by 0.3 μm were acquired, and stacks were digitally deconvolved using a constrained-iterative algorithm. TILLvisION software was used to convert z-stacks into xy projection images, by retaining only the maximal pixel value for each xy coordinate across the z-dimension.
The inventors next examined whether formation of Bcl10 POLKADOTS is PKC-dependent (FIG. 4 and FIG. 5). D10 T cells expressing Bcl10-YFP were incubated with CH12 B cells with no antigen, or with conalbumin-loaded CH12 B cells (100 μg/ml conalbumin). […] Cells were fixed after 20 minutes and examined by fluorescence microscopy. For each group, >200 T cells were counted, and percentages with and without POLKADOTS were determined.
(§3) CH12 B cells that had been pre-incubated with no antigen or with 250 μg/ml conalbumin protein were then added. Cells were fixed after 30 min and examined by fluorescence microscopy. […]

The subject of experiment [2] is Bcl10-YFP POLKADOTS formation. In words: Bcl10-YFP POLKADOTS formation in PMA-stimulated D10 T cells with cytoskeletal inhibitors. The settings on record: data not shown. The format is cell-based, murine. Here is the method:
(§4) To circumvent the problem that many cytoskeletal inhibitors also impair T cell/APC conjugate formation, D10 T cells were activated with phorbol ester (PMA), a stimulator of PKC. Specifically, in these experiments, D10 T cells infected with retroviruses encoding PKCθ-CFP and Bcl10-YFP received no pre-treatment, 2 hr pretreatment with 10 μg/ml nocodazole, or 1 hr pretreatment with 2 μg/ml latrunculin A. Cells then received either no treatment or were incubated for 20 min with 10 ng/ml PMA.

Another experiment deals with Bcl10. Briefly: Endogenous Bcl10 enrichment at the T cell/APC interface in OTII T cell blasts, immunofluorescence microscopy. The format is cell-based, mice. As to conditions: 45 min with CHb APC loaded with 10 μg/ml OVA 323-339, FIG. 1B. Here is the method: as §1
For fixed cell imaging, T cell conjugates were formed, mounted on coverslips, paraformaldehyde fixed, and stained with fluorophore-conjugated antibodies (Molecular Probes, Inc.) as described previously (16). […]
The inventors sought to establish whether Bcl10, like PKCθ, might be recruited to the c-SMAC in response to specific antigen-loaded APC. […] T cell/APC conjugates were detected by immunofluorescence microscopy, using monoclonal antibodies directed against Bcl10, PKCθ and CD4 (FIG. 1A). […]
In contrast, in T cells stimulated by specific antigen-loaded CHb APC, PKCθ became enriched at the region of contact between the T cell and the APC. […] The mean maximal anti-Bcl10 fluorescence intensity of the enriched regions of the antigen-stimulated T cells was 7-fold higher than the maximal T cell anti-Bcl10 fluorescence of the no antigen controls (FIG. 1B; error bars representing SEM).

The next experiment has as its system microtubules. Briefly: Microtubule integrity (tubulin distribution) in PMA-stimulated D10 T cells. As to conditions: 2 hr pretreatment with 10 μg/ml nocodazole, then 10 ng/ml PMA 20 min. Format: cell-based, murine. Here is the method:
as §4

The target in another experiment is T1, PKCθ-CFP (Mus musculus, UniProt Q02111).
T1 construct: expressed in transfected cells; host or cells: D10 murine CD4+ T cell clone, infected with pEneo retrovirus
T1 sequence (Q02111 whole entry): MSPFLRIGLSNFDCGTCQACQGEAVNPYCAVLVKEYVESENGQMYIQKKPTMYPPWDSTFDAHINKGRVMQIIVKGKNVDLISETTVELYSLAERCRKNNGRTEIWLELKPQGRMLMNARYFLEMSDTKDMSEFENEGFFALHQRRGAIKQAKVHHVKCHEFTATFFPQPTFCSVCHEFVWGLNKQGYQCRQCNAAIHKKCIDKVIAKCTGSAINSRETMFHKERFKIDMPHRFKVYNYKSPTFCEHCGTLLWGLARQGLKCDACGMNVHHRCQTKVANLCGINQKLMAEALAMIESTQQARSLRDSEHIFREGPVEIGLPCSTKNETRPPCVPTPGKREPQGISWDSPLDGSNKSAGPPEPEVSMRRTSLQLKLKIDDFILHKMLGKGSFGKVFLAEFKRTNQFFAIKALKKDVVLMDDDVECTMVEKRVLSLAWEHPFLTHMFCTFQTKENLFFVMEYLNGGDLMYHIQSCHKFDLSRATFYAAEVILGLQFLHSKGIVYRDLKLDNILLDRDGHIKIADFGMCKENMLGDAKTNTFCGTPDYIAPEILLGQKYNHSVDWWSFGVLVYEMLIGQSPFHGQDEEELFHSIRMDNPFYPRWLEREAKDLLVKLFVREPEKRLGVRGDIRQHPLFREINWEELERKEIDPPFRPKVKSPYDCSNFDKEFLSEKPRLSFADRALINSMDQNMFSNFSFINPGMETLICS
Briefly: PKCθ-CFP translocation in D10 T cells, fluorescence microscopy. Format: cell-based, murine. Here is the method:
as §2, §4, §3

For experiment [3], the system named is Bcl10-YFP phosphorylation. Briefly: Western blot of TCR-dependent Bcl10-YFP phosphorylation in D10 T cells. The settings on record: anti-TCR stimulation, 30 min pre-treatment with 2 μM, data not shown. The format is cell-based, murine. Here is the method:
(§5) T cells were stimulated with 100 μg/ml plate-bound anti-TCRP. Cell lysates were prepared on ice using 1× Laemmli buffer, followed by sonication. For immunoprecipitations, 5×10^6 cells were lysed for 1 hr on ice in 360 μL of a buffer consisting of 0.5% NP40, 0.5% deoxcholate, 20 mM Tris, pH 7.6, 250 mM NaCl, 3 mM EDTA, 3 mM EGTA, 1 mM PMSF, 20 μg/ml aprotinin, 100 μg/ml leupeptin, 1 mM Na3VO4, 10 mM NaF, and 1 mM DTT. Nuclei were removed by centrifugation, and lysates were incubated with polyclonal rabbit anti-Bcl10 antibody (Santa Cruz Biotechnology) for 2-3 hr at 4° C. and then for 1 hr at 4° C. with Protein A sepharose. Lysates and immunoprecipitates were separated by SDS-PAGE and blotted onto nitrocellulose. Proteins were detected by monoclonal antibodies against Bcl10 (Santa Cruz Biotechnology), and PKCθ (BD/Translabs), and polyclonal antibodies against phospho-IκBα anti-phospho-PKCθ/Thr538 (Cell Signaling Technologies), and actin (Santa Cruz Biotechnology). For phosphatase treatment, immunoprecipitates were incubated for 45 min at 30° C. with 400 U of λ-phosphatase (New England Biolabs), according to the instructions of the manufacturer.
The inventors next investigated whether Bcl10 redistribution reflects biochemical modification of Bcl10. […]

The subject of experiment [4] is NF-κB activation (phosphorylation of IκBα). Briefly: NF-κB activation assessed by phosphorylation of IκBα in anti-TCR stimulated D10 T cells. Format: cell-based, murine. The settings on record: anti-TCR stimulation, 30 min pre-treatment with 2 μM, data not shown. The protocol: as §5, with “manufacturer. […]” for “manufacturer.”
The next experiment has as its system ERK MAP kinases. In words: Activation of ERK MAP kinases in anti-TCR stimulated D10 T cells. Format: cell-based, murine. As to conditions: anti-TCR stimulation, 30 min pre-treatment with 2 μM.

Consider `CN[C@@H]1C[C@H]2O[C@@](C)([C@@H]1OC)n1c3ccccc3c3c4c(c5c6ccccc6n2c5c31)C(=O)NC4` [stauro, staurosporine], for which, in experiment [1], the “Bcl10-YFP POLKADOTS formation” value is “blocked” and the “Bcl10 POLKADOTS formation” value was “blocked”.
Take `C/C1=C/C(=O)O[C@@H]2C[C@@H](CC[C@H](C)/C=C\C=C\CC1)O[C@@](O)([C@@H]1CSC(=O)N1)C2` [latrunculin A]: in experiment [2] (1 hr pretreatment with 2 μg/ml latrunculin A, then 10 ng/ml PMA 20 min), the “levels of Bcl10-YFP POLKADOTS after cytoskeletal inhibitor pretreatment” value is “did not appear to have reduced levels”.
Take “ovalbumin: ovalbumin peptide OVA 323-339 bound to IA^b, antigen for OTII T cells (KISQAVHAAHAEINEAG; UniProt P01012 323-339, looked up, fragment)”: in the experiment on Bcl10, the “mean maximal anti-Bcl10 fluorescence intensity of enriched regions relative to no antigen controls” value is 7 fold.
For `COC(=O)Nc1nc2ccc(C(=O)c3cccs3)cc2[nH]1` [nocodazole], the “microtubules (distribution of tubulin)” value in the experiment with microtubules is “disrupted”.
Turning to `CCCCCCCCCCCCCC(=O)O[C@@H]1[C@@H](C)[C@@]2(O)[C@@H](C=C(CO)C[C@]3(O)C(=O)C(C)=C[C@@H]23)[C@@H]2C(C)(C)[C@]12OC(C)=O` [PMA], the “Bcl10-YFP POLKADOTS on PMA stimulation” value in experiment [2] (D10 T cells expressing PKCθ-CFP and Bcl10-YFP, 10 ng/ml PMA for 20 min) was “formation of Bcl10-YFP POLKADOTS”. In addition, the “PKCθ-CFP translocation on PMA stimulation” value at PKCθ-CFP (10 ng/ml PMA for 20 min, data not shown) is recorded as “translocation of PKCθ-CFP to the cell membrane”.
Consider bisindolylmaleimide, for which the “formation of phosphorylated Bcl10-YFP” value in experiment [3] is “completely blocked”. The “PKCθ translocation in presence of PKC inhibitors” value at PKCθ-CFP (CH12 B cells with 250 μg/ml conalbumin, 30 min pretreatment, bisindo 2 μM, stauro 100 nM, FIG. 5) was “occurs”. In addition, the “activation of NF-κB (phosphorylation of IκBα)” value in experiment [4] is listed as “blocked”. Besides, in the experiment with ERK MAP kinases, the “activation of the ERK MAP kinases” value is “partially inhibited”. In addition, in experiment [1], the “Bcl10-YFP POLKADOTS formation” value is recorded as “blocked” and the “Bcl10 POLKADOTS formation” value is “blocked”.
